Experimental data from patent US11478451B1, “Macrocyclic chlorine substituted indole derivatives” (Bayer Aktiengesellschaft, priority 2017, dated 2022).
Counter-ions that a name gives are not always drawn. Like-named read-outs stand apart in the source and are kept apart here.

Legend:
SUDHL5 cells [1] = assay: Induction of caspase-3/7 activity (Caspase-Glo 3/7), SUDHL5; format: cell-based; conditions: EC50, median, SUDHL5, 3 h treatment
How it was run: (§1)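 Apoptosis induction was gauged via caspase-3/7 activity (Caspase-Glo 3/7) following a 3 h compound incubation at 37 °C. Background from medium-only wells was removed from each value.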

SUDHL10 cells [2] = assay: Induction of caspase-3/7 activity (Caspase-Glo 3/7), SUDHL10; format: cell-based; conditions: EC50, median, SUDHL10, 3 h treatment
How it was run: as §1

AMO-1 cells = assay: Antiproliferation assay (CellTiter-Glo, 72 h), AMO-1; format: cell-based; conditions: IC50, median, AMO-1, 72 h, read-out: Antiproli AMO-1 [M] median
How it was run: (§2)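 Proliferation is determined by CellTiter-Glo luminescence following 72 h incubation with compound at 37 °C, relative to a time-zero plate measured at plating.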

HMC-1-8 cells = assay: Antiproliferation assay (CellTiter-Glo, 72 h), HMC-1-8; format: cell-based; conditions: IC50, median, HMC-1-8, 72 h, read-out: Antiproli HMC-1-8 [M] median
Protocol: Assessment of the Anti-Proliferative Effect of Compounds in Different Cell Lines
The impact of compounds on the proliferation of different cell lines was assessed using the CellTiter-Glo® Luminescent Cell Viability reagent from Promega (G7573).
In parallel, cells were plated in a reference (day 0) plate for time zero determination.
Rim wells were excluded. The cells were incubated for 72 h hours in a humidified incubator at 37° C. The day 0 plate was measured by adding 30 μL/well of CTG solution (CellTiter-Glo® Luminescent Cell Viability reagent, Promega G7573) to time zero wells in the reference plate followed by a 10 minutes incubation and luminescence reading at 0.1 ms. using the PHERAstar FS microplate reader (BMG Labtech).
After 72 h incubation, the treated plates were measured in the same way as the day 0 plate mentioned above.

SUDHL10 cells [3] = assay: Induction of cytotoxicity (CellTiter-Glo, 5 h), SUDHL10; conditions: SUDHL10, 5 h
SUDHL5 cells [4] = assay: Induction of cytotoxicity (CellTiter-Glo, 5 h), SUDHL5; conditions: SUDHL5, 5 h
Protocol: Therefore, cytotoxicity assays were run in parallel in SUDHL5 and SUDHL10 cells.
The different cell lines were plated in culture medium (RPMI 1640 [GIBCO #22400-089] supplemented with 10% Fetal Bovine Serum) at a density of 3,300 cells in 30 μL/well in a sterile, solid black, flat bottom, polystyrene, TC-treated 384-well microplate (Corning #3571) using Multidrop Combi Reagent Dispenser. As a control, medium without cells was also added to the plate. Cells were incubated in a humidified incubator at 37° C. overnight. […] Rim wells were excluded. The cells were incubated for 5 h hours in a humidified incubator at 37° C. After this incubation, 30 μL of CellTiter-Glo® Luminescent Cell Viability reagent (Promega, G7573) was added to each well using the Multidrop Combi Reagent Dispenser, followed by 15 min incubation on a shaker at room temperature. Finally, luminescence was read at 0.1 ms, with a gain of 3000 using the PHERAstar FS microplate reader (BMG Labtech).

SUDHL5 cells [5] = assay: Antiproliferation assay (CellTiter-Glo, 72 h), SUDHL5; format: cell-based; conditions: IC50, median; SUDHL5, 72 h; read-out: Antiproli SUDHL5 [M] (median)
How it was run: as §2

[6] = Homo sapiens, SU-DHL10, 5 h, read-out: Cytotox SUDHL10 [M] (median), IC50, median
[7] = Homo sapiens, SU-DHL-5, 5 h, read-out: Cytotox SUDHL5 [M] (median), IC50, median
[8] = read-out: Cytotox SUDHL5 [M] (median), IC50, median

Structure (SMILES): Cc1c2c(nn1C)COCCn1c(C(=O)O)c(CCCOc3cccc4ccccc34)c3ccc(Cl)c-2c31 (single isomer, unassigned) [Example 88, 11-chloro-9,10-dimethyl-1-{3-[(naphthalen-1-yl)oxy]propyl}-4,5,7,9-tetrahydropyrazolo[4′,3′:7,8][1,4]oxazonino[6,5,4-hi]indole-2-carboxylic acid]
- EC50 (SUDHL5 cells [1]; Homo sapiens, SU-DHL-5, 3 h): 7400 nM
- EC50 (SUDHL10 cells [2]; Homo sapiens, SU-DHL10, 3 h): 4300 nM
- IC50 (AMO-1 cells; Homo sapiens, AMO1, 72 h): 6.7e-06 M
- IC50 (HMC-1-8 cells; 72 h): 4.5e-06 M
- IC50 (SUDHL10 cells [3]; [6]): 4e-06 M

Structure (SMILES): Cc1c2c(nn1C)COCC1CCC1Cn1c(C(=O)O)c(CCCOc3cccc4ccccc34)c3ccc(Cl)c-2c31 (single isomer, unassigned; enantiomer 2) [Example 79, 3-chloro-4,5-dimethyl-15-{3-[(naphthalen-1-yl)oxy]propyl}-5,7,9,9a,10,11,11a,12-octahydrocyclobuta[3,4]pyrazolo[4′,3′:9,10][1,6]oxazacycloundecino[8,7,6-hi]indole-14-carboxylic acid (Enantiomer 2)]
- EC50 (SUDHL5 cells [1]; listed as 079): 580 nM
- EC50 (SUDHL10 cells [2]; listed as 079): 1400 nM
- IC50 (AMO-1 cells; listed as 079): 1.7e-06 M
- IC50 (HMC-1-8 cells; 72 h): 8.6e-06 M
- IC50 (SUDHL5 cells [4]; read-out: Cytotox SUDHL5 [M] (median), IC50, median, listed as 079): 7.7e-07 M
- IC50 (SUDHL10 cells [3]; read-out: Cytotox SUDHL10 [M] (median), IC50, median, listed as 079): 1.6e-06 M

Structure (SMILES): Cc1c2c(nn1C)COCCC(F)(F)Cn1c(C(=O)O)c(CCCOc3cccc4cc(F)ccc34)c3ccc(Cl)c-2c31 (racemic) [Example 93, (rac)-4-Chloro-11,11-difluoro-7-{3-[(6-fluoronaphthalen-1-yl)oxy]propyl}-2,3-dimethyl-2,10,11,12,13,15-hexahydropyrazolo[4′,3′:9,10][1,6]oxazacycloundecino[8,7,6-hi]indole-8-carboxylic acid]
- EC50 (SUDHL10 cells [2]; Homo sapiens, SU-DHL10, 3 h): 220 nM
- IC50 (AMO-1 cells; Homo sapiens, AMO1, 72 h): 1.2e-06 M
- IC50 (HMC-1-8 cells; 72 h): 4.9e-06 M
- IC50 (SUDHL5 cells [4]; [7]): 3.5e-07 M
- IC50 (SUDHL10 cells [3]; [6]): 4.3e-07 M

Structure (SMILES): CCc1nn(C)c2c1-c1c(Cl)ccc3c(CCCOc4cccc5cc(F)ccc45)c(C(=O)O)n(c13)CCCCOC2 (single isomer, unassigned; enantiomer 1) [Example 34, (+)-4-chloro-3-ethyl-7-{3-[(6-fluoronaphthalen-1-yl)oxy]propyl}-1-methyl-1,10,11,12,13,15-hexahydropyrazolo[4′,3′:9,10][1,6]oxazacycloundecino[8,7,6-hi]indole-8-carboxylic acid (Enantiomer 1)]
- EC50 (SUDHL10 cells [2]; Homo sapiens, SU-DHL10, 3 h): 930 nM
- IC50 (AMO-1 cells; Homo sapiens, AMO1, 72 h): 1.4e-06 M
- IC50 (HMC-1-8 cells; 72 h): 2e-06 M

Structure (SMILES): Cc1c2c(nn1C)COCCC(F)(F)Cn1c(C(=O)O)c(CCCOc3cccc4ccccc34)c3ccc(Cl)c-2c31 [Example 94, 4-chloro-11,11-difluoro-2,3-dimethyl-7-{3-[(naphthalen-1-yl)oxy]propyl}-2,10,11,12,13,15-hexahydropyrazolo[4′,3′:9,10][1,6]oxazacycloundecino[8,7,6-hi]indole-8-carboxylic acid N-ethylethanamine salt]
- EC50 (SUDHL5 cells [1]; listed as 094): 1600 nM
- EC50 (SUDHL10 cells [2]; listed as 094): 3100 nM
- IC50 (HMC-1-8 cells; 72 h): 6.3e-06 M
- IC50 (SUDHL5 cells [4]; read-out: Cytotox SUDHL5 [M] (median), IC50, median, listed as 094): 2.9e-06 M
- IC50 (SUDHL10 cells [3]; read-out: Cytotox SUDHL10 [M] (median), IC50, median, listed as 094): 4.5e-06 M

Structure (SMILES): CCc1nn(CCN2CCOCC2)c2c1-c1c(Cl)ccc3c(CCCOc4cccc5ccccc45)c(C(=O)O)n(c13)C/C=C\CN(C)C2 (single isomer, unassigned; enantiomer 2) [Example 44, (11Z)-4-chloro-3-ethyl-14-methyl-1-[2-(morpholin-4-yl)ethyl]-7-{3-[(naphthalen-1-yl)oxy]propyl}-10,13,14,15-tetrahydro-1H-pyrazolo[3′,4′:8,9][1,6]diazacycloundecino[10,11,1-hi]indole-8-carboxylic acid-ammonia salt (Enantiomer 2)]
- IC50 (AMO-1 cells): 1.1e-06 M
- IC50 (HMC-1-8 cells; 72 h): 2.1e-06 M
- IC50 (SUDHL5 cells [4]; [8]): 7e-07 M

Structure (SMILES): Cc1nn(C)c2c1-c1c(Cl)ccc3c(CCCOc4cccc5ccccc45)c(C(=O)O)n(c13)CCCCOC2 (single isomer, unassigned; enantiomer 1) [Example 3, 4-chloro-1,3-dimethyl-7-[3-(naphthalen-1-yloxy)propyl]-1,10,11,12,13,15-hexahydropyrazolo[4′,3′:9,10][1,6]oxazacycloundecino[8,7,6-hi]indole-8-carboxylic acid (Enantiomer 1)]
- EC50 (SUDHL5 cells [1]; Homo sapiens, SU-DHL-5, 3 h): 710 nM
- EC50 (SUDHL10 cells [2]; Homo sapiens, SU-DHL10, 3 h): 1600 nM
- IC50 (AMO-1 cells; Homo sapiens, AMO1, 72 h): 2.5e-06 M
- IC50 (HMC-1-8 cells; 72 h): 8.3e-06 M
- IC50 (SUDHL5 cells [4]; [7]): 6.5e-07 M
- IC50 (SUDHL10 cells [3]; [6]): 1.5e-06 M

Structure (SMILES): CCc1c2c(nn1C)CCCN(CC(F)F)CCn1c(C(=O)O)c(CCCOc3cccc4cc(F)ccc34)c3ccc(Cl)c-2c31 [Example 120, (−)-4-chloro-12-(2,2-difluoroethyl)-3-ethyl-7-{3-[(6-fluoronaphthalen-1-yl)oxy]propyl}-2-methyl-10,11,12,13,14,15-hexahydro-2H-pyrazolo[3′,4′:8,9][1,4]diazacycloundecino[10,11,1-hi]indole-8-carboxylic acid N-ethylethanamine salt]
- EC50 (SUDHL5 cells [1]): 10000 nM
- IC50 (SUDHL5 cells [5]): 7e-06 M
- IC50 (HMC-1-8 cells): 7.1e-06 M

Structure (SMILES): CCc1c2c(nn1C)CN(CCOC)CCCCn1c(C(=O)O)c(CCCOc3cccc4cc(F)ccc34)c3ccc(Cl)c-2c31 (racemic) [Example 131, (rac)-4-chloro-3-ethyl-7-{3-[(6-fluoronaphthalen-1-yl)oxy]propyl}-14-(2-methoxyethyl)-2-methyl-10,11,12,13,14,15-hexahydro-2H-pyrazolo[3′,4′:8,9][1,6]diazacycloundecino[10,11,1-hi]indole-8-carboxylic acid]
- EC50 (SUDHL10 cells [2]; Homo sapiens, SU-DHL10, 3 h): 130 nM
- IC50 (HMC-1-8 cells; 72 h): 1.3e-06 M
- IC50 (SUDHL10 cells [3]; [6]): 1.5e-07 M

Structure (SMILES): CCc1c2c(nn1C)COCCCCn1c(C(=O)O)c(CCCOc3cccc4ccccc34)c3ccc(Cl)c-2c31 (single isomer, unassigned; enantiomer 1) [Example 20, 4-chloro-3-ethyl-2-methyl-7-[3-(naphthalen-1-yloxy)propyl]-2,10,11,12,13,15-hexahydropyrazolo[4′,3′:9,10][1,6]oxazacycloundecino[8,7,6-hi]indole-8-carboxylic acid (Enantiomer 1)]
- EC50 (SUDHL10 cells [2]; Homo sapiens, SU-DHL10, 3 h): 390 nM
- IC50 (AMO-1 cells; Homo sapiens, AMO1, 72 h): 8.7e-07 M
- IC50 (HMC-1-8 cells; 72 h): 2.5e-06 M
- IC50 (SUDHL10 cells [3]; [6]): 6.9e-07 M

Structure (SMILES): Cc1c2c(nn1C)CN(C)CCCCn1c(C(=O)O)c(CCCOc3cccc4ccccc34)c3ccc(Cl)c-2c31 (racemic) [Example 11, (rac)-4-chloro-2,3,14-trimethyl-7-[3-(naphthalen-1-yloxy)propyl]-10,11,12,13,14,15-hexahydro-2H-pyrazolo[3′,4′:8,9][1,6]diazacycloundecino[10,11,1-hi]indole-8-carboxylic acid]
- IC50 (AMO-1 cells; Homo sapiens, AMO1, 72 h): 7.3e-07 M
- IC50 (HMC-1-8 cells; 72 h): 4.2e-06 M

Structure (SMILES): Cc1c2c(nn1CCCN1CCN(C)CC1)COCCCCn1c(C(=O)O)c(CCCOc3cccc4ccccc34)c3ccc(Cl)c-2c31 (single isomer, unassigned; enantiomer 2) [Example 50, (−)-4-chloro-3-methyl-2-[3-(4-methylpiperazin-1-yl)propyl]-7-{3-[(naphthalen-1-yl)oxy]propyl}-2,10,11,12,13,15-hexahydropyrazolo[4′,3′:9,10][1,6]oxazacycloundecino[8,7,6-hi]indole-8-carboxylic acid (Enantiomer 2)]
- EC50 (SUDHL5 cells [1]): 360 nM
- IC50 (AMO-1 cells): 1.3e-06 M
- IC50 (HMC-1-8 cells; 72 h): 3.1e-06 M
- IC50 (SUDHL5 cells [4]; [8]): 4.4e-07 M

Structure (SMILES): Cc1c2c(nn1C)COCC1CCC1Cn1c(C(=O)O)c(CCCOc3cccc4ccccc34)c3ccc(Cl)c-2c31 (single isomer, unassigned) [Example 81, 3-chloro-4,5-dimethyl-15-{3-[(naphthalen-1-yl)oxy]propyl}-5,7,9,9a,10,11,11a,12-octahydrocyclobuta[3,4]pyrazolo[4′,3′:9,10][1,6]oxazacycloundecino[8,7,6-hi]indole-14-carboxylic acid]
- EC50 (SUDHL5 cells [1]; listed as 081): 7400 nM
- EC50 (SUDHL10 cells [2]; listed as 081): 6200 nM
- IC50 (HMC-1-8 cells; listed as 081): 5.5e-06 M
- IC50 (SUDHL5 cells [4]; read-out: Cytotox SUDHL5 [M] (median), IC50, median, listed as 081): 5.8e-06 M
- IC50 (SUDHL10 cells [3]; read-out: Cytotox SUDHL10 [M] (median), IC50, median, listed as 081): 8.4e-06 M
